# Reference: patent US20070049518A1, “Novel method of treatment of inflammatory skin conditions” (priority 2005, published 2007)
# Assays:
# [1] = tested on: protease activity in skin wash samples from patients with acute AD; experiment: Protease activity in skin wash samples, fluorogenic enzyme assay; format: biochemical, human
# Method: A method has been developed to evaluate protease activity in skin washings. Skin washings from patients with acute eczema may be obtained by aspirating 0.5 ml sterile physiological saline over the skin surface using a sterile, disposable plastic Pasteur pipette The skin area ( 1 cm^2) is defined by a sterile open-ended plastic cylinder. […] Samples were incubated at 37° C. in a POLARstar Optima plate reader (BMG Labtech Ltd.) and fluorescence readings (320 nm excitation/405 nm emission) taken every 15 min for 6 h. Activity was expressed as the rate of increase in fluorescence as a function of time.
# [2] = tested on: V8 protease in S. aureus 8325-4 culture supernatant; experiment: V8 protease activity in supernatant of S. aureus grown with compound; format: cell-based, Staphylococcus aureus
# Method: (§1) Duplicate samples of brain heart infusion medium (5 ml; Becton Dickinson and Co.) containing 10% skimmed milk and 2% (v/v) DMSO vehicle±Compound 12 were inoculated with S. aureus 8325-4 (approximately 10^7 cells in tryptic soy broth) and incubated for 16 h at 37° C./220 rpm. Cultures were centrifuged to remove bacteria and the culture supernatants stored at −70° C. pending analysis of protease activity.
# (§2) Enzyme activities were measured in mixtures containing 90 mM MOPS (sodium) buffer pH 7.0 (0.1 ml), 0.045% Brij 35, 2% (v/v) DMSO vehicle±Compound 12 and culture supernatant (4 μl). The concentration of compound used was the same as that which had been used to culture the assayed sample. Further additions to the reaction mixtures were as follows. Aureolysin assay: 4.5 mM calcium chloride, 9 μM E-64 (to inhibit cysteine protease activity) and 10 μM Mca-Pro-Leu-Gly-Leu-Dap(Dnp)-Ala-Arg-amide (Bachem); V8 protease assay: 10 μM Mca-Leu-Glu-Val-Asp-Gly-Trp-Lys(Dnp)-amide (Bachem); cysteine protease assay: 1.8 mM cysteine-HCl (pH-adjusted with NaOH), 9 mM EDTA and 0.1 mM Z-Phe-Arg-AMC hydrochloride (Bachem). The rate of product formation at 37° C. was monitored over 6 h taking readings at 15 min intervals using a POLARstar OPTIMA plate reader (BMG LABTECH Ltd) with 320 nm excitation/405 nm emission for aureolysin and V8 assays and 390 nm excitation/460 nm emission for the cysteine protease assay. Enzyme activities were determined from the linear rate of fluorescence increase and converted to percent inhibition by reference to vehicle control samples.
# [3] = tested on: Cysteine protease in S. aureus 8325-4 culture supernatant; experiment: Cysteine protease activity in supernatant of S. aureus grown with compound; format: cell-based, Staphylococcus aureus
# Method: as §1, §2
# [4] = Compound 12 40 μM in culture and assay
# [5] = Compound 12 79 μM in culture and assay
# [6] = Compound 12 159 μM in culture and assay
# [7] = Compound 12 317 μM in culture and assay
structure (smiles),measurement,setting,value
"CNC(=O)[C@@H](NC(=O)[C@@H](CC(=O)NO)CC(C)C)C(C)(C)C [Compound 11, (R)—N1-((S)-3,3-dimethyl-1-(methylamino)-1-oxobutan-2-yl)-N4-hydroxy-2-isobutylsuccinamide]",inhibition of protease activity in skin wash samples (in words),"[1]; 50 μM, fluorogenic assay, AD patients",significant inhibition of protease activity
same,% Inhibition protease activity with compound 11,"[1]; 50 μM, skin wash sample 5",100%
same,% Inhibition protease activity with compound 11,"[1]; 50 μM, skin wash sample 7",48.7%
same,% Inhibition protease activity with compound 11,"[1]; 50 μM, skin wash sample 14",88.5%
same,% Inhibition protease activity with compound 11,"[1]; 50 μM, skin wash sample 17",96.4%
same,% Inhibition protease activity with compound 11,"[1]; 50 μM, skin wash sample 18",75.6%
same,% Inhibition protease activity with compound 11,"[1]; 50 μM, skin wash sample 21",85.1%
same,% Inhibition protease activity with compound 11,"[1]; 50 μM, skin wash sample 26",85.3%
same,% Inhibition protease activity with compound 11,"[1]; 50 μM, skin wash sample 30",100%
same,% Inhibition protease activity with compound 11,"[1]; 50 μM, skin wash sample 36",95.3%
same,% Inhibition protease activity with compound 11,"[1]; 50 μM, skin wash sample 37",81.8%
same,% Inhibition protease activity with compound 11,"[1]; 50 μM, skin wash sample 39",100%
same,% Inhibition protease activity with compound 11,"[1]; 50 μM, skin wash sample 40",85.6%
same,% Inhibition protease activity with compound 11,"[1]; 50 μM, skin wash sample 43",91.8%
same,% Inhibition protease activity with compound 11,"[1]; 50 μM, skin wash sample 48",96.9%
same,Protease activity with 50 μM compound 11,[1]; skin wash sample 5,0 FIU/min/μl
same,Protease activity with 50 μM compound 11,[1]; skin wash sample 7,0.271 FIU/min/μl
same,Protease activity with 50 μM compound 11,[1]; skin wash sample 14,0.0761 FIU/min/μl
same,Protease activity with 50 μM compound 11,[1]; skin wash sample 17,0.123 FIU/min/μl
same,Protease activity with 50 μM compound 11,[1]; skin wash sample 18,0.0674 FIU/min/μl
same,Protease activity with 50 μM compound 11,[1]; skin wash sample 21,0.0302 FIU/min/μl
same,Protease activity with 50 μM compound 11,[1]; skin wash sample 24 (activity without compound 0),0.00122 FIU/min/μl
same,Protease activity with 50 μM compound 11,[1]; skin wash sample 26,0.0554 FIU/min/μl
same,Protease activity with 50 μM compound 11,[1]; skin wash sample 30,0 FIU/min/μl
same,Protease activity with 50 μM compound 11,[1]; skin wash sample 36,0.0173 FIU/min/μl
same,Protease activity with 50 μM compound 11,[1]; skin wash sample 37,0.126 FIU/min/μl
same,Protease activity with 50 μM compound 11,[1]; skin wash sample 39,0 FIU/min/μl
same,Protease activity with 50 μM compound 11,[1]; skin wash sample 40,0.103 FIU/min/μl
same,Protease activity with 50 μM compound 11,[1]; skin wash sample 43,0.0814 FIU/min/μl
same,Protease activity with 50 μM compound 11,[1]; skin wash sample 48,0.0287 FIU/min/μl
"CNC(=O)[C@@H](NC(=O)[C@H](CC(=O)NO)CC(C)C)C(C)(C)C [Compound 12, (S)—N1-((S)-3,3-dimethyl-1-(methylamino)-1-oxobutan-2-yl)-N4-hydroxy-2-isobutylsuccinamide]",Inhibition (%) V8 protease,[2]; [4],83%
same,Inhibition (%) V8 protease,[2]; [5],91%
same,Inhibition (%) V8 protease,[2]; [6],97%
same,Inhibition (%) V8 protease,[2]; [7],99%
same,Inhibition (%) Cysteine protease,[3]; [4],27%
same,Inhibition (%) Cysteine protease,[3]; [5],53%
same,Inhibition (%) Cysteine protease,[3]; [6],78%
same,Inhibition (%) Cysteine protease,[3]; [7],87%
